Values quoted from earlier work, collected in US20020032188A1, “Compositions and methods for treatment of anal fissure” (priority 2000, published 2002).

Conditions: topical ISDN

O=[N+]([O-])O[C@H]1CO[C@H]2[C@@H]1OC[C@H]2O[N+](=O)[O-] [ISDN, isosorbide dinitrate]
treatment of chronic anal fissure, result reported: effective treatment for chronic anal fissure
